# Like-named read-outs stand apart in the source and are kept apart here.
# Experiments:
# [1] = system: WNV progeny virus in Vero E6 cells; assay: Titer reduction assay (TCID50 of progeny virus); format: cell-based, West Nile virus; design: SI50 *: unit not given beside the values; details: for SI50 *: Table 3, footnote to * not given; for EC50 / EC90 / inhibition at 15 µM: West Nile virus; for EC50 / EC90: Vero C1008, 48 h; for EC50: read-out: Dose response in Titer reduction EC50; for EC90: read-out: Dose response in Titer reduction EC90; for inhibition at 15 µM: Vero C1008, read-out: inhibition of progeny virus titer
# Method: Finally, we employed a titer reduction assay to confirm the antiviral activity of the seven compounds confirmed in the assays. The titer of the progeny virus produced in the presence of the compounds was measured in TCID50 format. […] The titer reduction assay confirmed the antiviral activity of the hit compounds selected through our pathway (Figure 6).
# Vero E6 cells were seeded in a 12-well plate in a volume of 1 mL and incubated overnight at 37 °C and 5% CO2. The next day media was aspirated from the cells and they were infected by adsorption of WNV (0.1 MOI) for one hour in 100 μL media. After aspirating the virus and washing the cells with phosphate buffered saline, media was replenished containing compounds at various concentrations. The plates were incubated for 48 h. Progeny virus titer was measured by TCID50 assay in 384-well plate format with 6 wells per dilution of virus. CellTiter-Glo® reagent was employed to determine a cell death which is a sign of infection. A well with a luminescence signal less than the mean of the non-infected control signal, minus 5 times the standard deviation of the control, was regarded as a positive infection. The TCID50 was calculated with the numbers of positive infection and negative infection by the Reed-Muench method.
# [2] = system: WNV (NY-99 strain) infection of Vero E6 cells; assay: Time of addition assay in dose response format; format: cell-based, West Nile virus; details: for EC50 change pattern (time of addition): Table 2; for EC50 change pattern over the course of infection: Table 3, compound added at -1, 4, 8, 18 h post-infection; for EC50: West Nile virus, Vero C1008, 18 h, read-out: EC50 in time of addition assay
# Method: The compounds selected by the primary and dose response screening were re-supplied from the suppliers as a solid form except 4 compounds; SMR000394098, SMR000059052, SMR000027739 and SRI-4578, which were not available at that time (Table 1). Time of addition assays were conducted in a dose response format with the 20 compounds. Serially diluted compounds were added to Vero E6 cells at -1, 4, 8 and 18 h post-infection. Luminescent data was calculated (as above) to obtain EC50 values for each compound at each time point of addition.
# The EC50 of MPA was within a range of 2.0~5.0 μM regardless of when it was added.
# (§1) Cytotoxicity and antiviral efficacy were performed in a dose-response format in parallel. Compounds were serially diluted in complete media (MEM-E) with a 0.5% DMSO final concentration and adding 5 μL to cell plates, identical to the stacked plate method. A ten point, two-fold dilution series of compound concentrations ranging from 30 μM to 0.059 μM were used in the assay. Virus (0.04 MOI) or media was added for antiviral effect or cytotoxicity respectively. The plates were incubated 96 h in a 5% CO2 incubator at 37 °C. Cell viability was measured as stated above. The serially diluted compounds were also used for time of addition studies adding to the infected cells in 384-well plates at -1, 4, 8 and18 h post-infection with WNV (0.02 MOI). The plates were then developed as above 96 h after infection. The EC50 value was calculated for each time of addition point.
# [3] = system: WNV (NY-99 strain) infection of Vero E6 cells; assay: Single dose primary HTS, CPE based (CellTiter-Glo), 384-well; format: cell-based, West Nile virus
# [4] = Cytotoxicity in dose-response format (CellTiter-Glo); format: cell-based; details: African green monkey, Vero E6 cells (uninfected)
# Method: (§2) To confirm the activity and to test the cytotoxicity, the top 110 inhibitory compounds were evaluated in a dose response assay using the identical screen.
# as §1, with “A ten point, two-fold dilution series of compound concentrations ranging from 30 μM to 0.059 μM were used in the assay.” left out
# (§3) The Z′ value was employed to evaluate the assay’s robustness and was calculated from 1-(3×standard deviation of cell control (σc) + 3* standard deviation of the virus control (σv)/ [mean cell control signal (μc) minus mean virus control signal (μv)]). The signal/background (S/B) was calculated from the mean cell control signal (μc) divided by the mean virus control signal (μv). The signal/noise (S/N) was calculated from mean cell control signal (μc) minus mean virus control signal (μv) divided by the (standard deviation of the cell control signal (σc)^2 […] the standard deviation of the virus control signal (σv)^2)^1/2 [24]. The effective concentration at which the drug inhibited cell death at 50% in the presence of virus (EC50) and the cytotoxicity of the drug alone at 50% (CC50) were calculated using ActivityBase software (IDBS, Inc, Guildford, UK). CPE inhibition (%) and cell viability were calculated as described in elsewhere. The standard curve analysis function in SigmaPlot™ was used to calculate the inhibitory concentration (IC50 and IC50 values) for the protease and titer reduction assays.
# WNV NS2b-NS3pro = biological target: T1, WNV NS2b-NS3pro (West Nile virus, UniProt Q9Q6P4); assay: WNV NS2b-NS3pro FRET based enzymatic assay; format: biochemical
# T1 construct: A recombinant NS3 protease expressed and purified from E.coli; purchased AnaSpec Inc (CA, USA); host or cells: E. coli
# T1 sequence (Q9Q6P4 1506-1683 limits assumed, looked up): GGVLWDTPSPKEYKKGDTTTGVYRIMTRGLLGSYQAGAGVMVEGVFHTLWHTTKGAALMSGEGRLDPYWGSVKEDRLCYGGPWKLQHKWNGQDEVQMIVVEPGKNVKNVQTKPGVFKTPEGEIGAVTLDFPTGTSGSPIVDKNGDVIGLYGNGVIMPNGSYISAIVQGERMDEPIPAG
# T1 sequence (Q9Q6P4 1423-1470 partner limits assumed, looked up): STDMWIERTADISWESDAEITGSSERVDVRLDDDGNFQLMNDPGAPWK
# Excerpt: The results from the time of addition assay led us to examine the NS3 protease as a potential target of the hit compounds. NS3 protease is an important enzyme responsible for the maturation of viral proteins at early stage during the replication of virus in the host cells. We tested the compounds for an inhibitory activity on NS3 protease using a FRET based, in vitro, enzymatic assay.
# A recombinant NS3 protease expressed and purified from E.coli with the cofactor NS2b (residues 49-96) and a fluorescence resonance energy transfer (FRET) based assay kit were purchased from AnaSpec Inc (CA, USA). We followed an assay protocol published on line at PubChem by University of Pittsburgh Molecular Library Screening Center (http://www.ncbi.nlm.nih.gov/, AID:577). The assay was performed in a 384-well format with 10 ng/well of NS2b-NS3pro enzyme.
# [5] = system: WNV (NY-99 strain) infection of Vero E6 cells; assay: Dose response assay in CPE based screen (antiviral efficacy); format: cell-based, West Nile virus
# Method: as §2
# After reviewing the data from the primary screen, 110 compounds were selected for a dose-response study. The same compound stocks (10 mM in 100% DMSO) were used to select 7 μL of the compounds into a low-volume, 384-well plate. The dose response plates were prepared using a “stacked-plate” format using a 1:2 dilution series for a total of ten concentrations. By using this format, each entire plate represents one of the ten concentrations in the dilution series. A 5 μL aliquot of each of the serial dilution plates was transferred to the assay plates along with an equal volume but separate transfer of controls. With the addition of 20 μL of cells and 5 μL of virus, the final test concentrations for the dose response screen were 30 μM, 15 μM, 7.5 μM, 3.75 μM, 1.875 μM, 0.9375 μM, 0.4688 μM, 0.2344 μM, 0.1172 μM, and 0.0586 μM all at […].
# as §1, §3
# [6] = Table 3, Vero E6, read-out: Dose response in CPE based CC50
# [7] = Table 1, CPE based dose response, Vero E6, WNV 0.04 MOI, 96 h, read-out: EC50
# [8] = West Nile virus, Vero C1008, 96 h, Table 1, CPE based dose response, Vero E6, WNV 0.04 MOI, 96 h
# [9] = West Nile virus, Vero C1008, read-out: Dose response in CPE based EC50, Table 3, Vero E6, WNV
# [10] = Table 1, Vero E6 without virus, 96 h, read-out: CC50
SMILES,SI50 * [1],EC50 [1],EC90 [1],EC50 change pattern (time of addition) [2],EC50 change pattern over the course of infection [2],EC50 [2],"inhibition at 5 µg/mL ([3]; West Nile virus, Vero C1008, read-out: inhibition on average in primary screen)","protection ([3]; assay optimization, MOI 0.04, 384-well)","CC50 at 96 h [4, 6]",anti-NS2b-NS3pro activity (in words) (WNV NS2b-NS3pro),"SI50 (Selectivity Index 50, ratio of CC50 to EC50) ([5]; Table 1)","EC50 [5, 7]","EC50 [5, 8]","EC50 [5, 9]","CC50 at 96 h [4, 10]","Dose response in Titer reduction EC50 ([1]; Vero E6, WNV 0.1 MOI, 48 h post-infection)",inhibition at 15 µM [1]
"COc1c(C)c2c(c(O)c1C/C=C(\C)CCC(=O)O)C(=O)OC2 [MPA, mycophenolic acid, reference compound]",>1000,0.03 µM,0.94 µM,No Change : EC50_1hr ≈ EC50_4hr ≈ EC50_8hr ≈ EC50_18hr,no change,2 to 5 µM,44.6%,30%,> 30 µM,–,–,–,–,–,–,–,–
"O=C(O)c1ccccc1Nc1ccccc1 [N-Phenylanthranilic acid, reference compound]",–,–,–,–,–,–,–,–,–,could not detect any significant activity,–,–,–,–,–,–,–
Cc1oc(-c2ccccc2Cl)nc1CSCC(=O)N1CCCC1 [SMR000027739],–,–,–,–,–,–,–,–,–,–,>3.4,29.6 µM,–,–,–,–,–
CC(=O)OC[C@H]1O[C@@H](n2ncc(=O)[nH]c2=O)[C@H](OC(C)=O)[C@@H]1OC(C)=O [SMR000059052],–,–,–,–,–,–,–,–,–,–,>5.0,20 µM,–,–,–,–,–
O=C(O)c1ccccc1Nc1ccc([N+](=O)[O-])cc1 [SMR000171908],>25,1.16 µM,6.73 µM,Increase: EC50_1hr ≈ EC50_4hr ≤ EC50_8hr < EC50_18hr,Increase,–,–,–,> 30 µM,–,>3.3,–,30.4 µM,30.4 µM,> 100 µM,–,–
C[C@@H]1Cc2ccccc2N1S(=O)(=O)c1cccc(C(=O)N2CCN(c3ncccn3)CC2)c1 [SMR000370276],>5,–,6.07 µM,Increase: EC50_1hr ≈ EC50_4hr ≤ EC50_8hr < EC50_18hr,Increase,–,–,–,> 30 µM,–,>5.3,–,18.9 µM,18.9 µM,> 100 µM,No solution,98.8%
CC(C)C[C@H](NC(=O)c1nc[nH]c1C(=O)N1CCN(C(=O)OC(C)(C)C)CC1)C(=O)OC(C)(C)C [SMR000394098],–,–,–,–,–,–,–,–,–,–,>5.1,19.6 µM,–,–,–,–,–
"COc1cc(-c2ccc(Nc3ccccc3C(=O)O)c(OC)c2)ccc1Nc1ccccc1C(=O)O [SRI-19093, Redoxal]",>200,0.13 µM,2.14 µM,–,Increase,3.2 to 6.4 µM,–,–,> 30 µM,inhibited viral protease in vitro,>2.4,–,41 µM,41 µM,> 100 µM,–,93.7%
COc1cccc2c(=O)n3c(nc12)/C(=C/c1ccc2c(c1)OCO2)CC3 [SRI-22003],>6,4.7 µM,5.13 µM,Increase: EC50_1hr ≈ EC50_4hr ≤ EC50_8hr < EC50_18hr,Increase,–,–,–,> 30 µM,–,>8.2,–,12.2 µM,12.2 µM,> 100 µM,–,98.8%

# From article PMC4839297, “HTS-Driven Discovery of New Chemotypes with West Nile Virus Inhibitory Activity” (Molecules, 2010)
